Here are results for 7 compounds from patent publication US11098054B2, “Englerin derivatives for treatment of cancer” (The United States of America,as represented by the …, priority 2017, dated 2021).

Common to all, as to type: cell-based
One assay deals with UO-31. Description: NCI 60-cell line protocol, UO-31 (renal). Conditions: Homo sapiens, 48 h, two days drug exposure, SRB endpoint, read-out: GI-50 value. As to the method: (§1) Samples containing exemplary compounds of formulas (Ia)-(Ig) were tested in the standard National Cancer Institute 60-cell line protocol. First, they were tested against all 60 cell lines in a single final concentration of 10 micromolar. Then, they were separately tested in five 10-fold dilutions. The drug exposure was two days, with an SRB endpoint.

The test system of a further assay is HS 578T. Kind of assay: NCI 60-cell line protocol, HS 578T (breast). Conditions: Homo sapiens, 48 h, two days drug exposure, SRB endpoint, read-out: GI-50 value. As to the method: as §1
The next assay has as its system 786-0. Kind of assay: NCI 60-cell line protocol, 786-0 (renal). Conditions: Homo sapiens, 48 h, two days drug exposure, SRB endpoint, read-out: GI-50 value. As to the method: as §1
The test system of the next assay is A498. Description: NCI 60-cell line protocol, A498 (renal). The settings on record: Homo sapiens, 48 h, two days drug exposure, SRB endpoint, read-out: GI-50 value. As to the method: as §1
The next assay has as its system OVCAR-8. Description: NCI 60-cell line protocol, OVCAR-8 (ovarian). Conditions: Homo sapiens, 48 h, two days drug exposure, SRB endpoint, read-out: GI-50 value. On the procedure: as §1
The test system of the next assay is ACHN. Kind of assay: NCI 60-cell line protocol, ACHN (renal). The settings on record: Homo sapiens, 48 h, two days drug exposure, SRB endpoint, read-out: GI-50 value. On the procedure: as §1
Assay [1] deals with cancer cell lines within the NCI 60 cell assay. Kind of assay: NCI 60 cell assay, cancer cell line panel. Conditions: Homo sapiens, average over the nine cell lines of Table 1, read-out: Average GI-50. As to the method: as §1
The test system of a further assay is SN12C. Kind of assay: NCI 60-cell line protocol, SN12C (renal). The settings on record: Homo sapiens, 48 h, two days drug exposure, SRB endpoint, read-out: GI-50 value. On the procedure: as §1
The subject of another assay is BT-549. Kind of assay: NCI 60-cell line protocol, BT-549 (breast). Conditions: Homo sapiens, 48 h, two days drug exposure, SRB endpoint, read-out: GI-50 value. On the procedure: as §1
In another assay the test system is RXF 393. Kind of assay: NCI 60-cell line protocol, RXF 393 (renal). Conditions: Homo sapiens, 48 h, two days drug exposure, SRB endpoint, read-out: GI-50 value. On the procedure: as §1

Consider `C[C@@H]1CC[C@@H]2C1[C@H](OC(=O)/C=C/c1ccccc1)[C@]1(C3CCCCC3)C[C@@H](OC(=O)CO)[C@@]2(C)O1` (stereo partly shown) [(Ib)], for which the GI50 with UO-31 stood at 15 nM; with HS 578T, 24 nM; in the assay on 786-0, 1180 nM; in the assay with A498, 19 nM; with OVCAR-8, 513 nM; in the assay on ACHN it was 10 nM. Also, the GI50 in assay [1] amounted to 217 nM; with SN12C, 85 nM; with BT-549, 34 nM; with RXF 393 it was 78 nM.

Regarding `CC1CC[C@@H]2C1[C@H](OC(=O)/C=C/C1CCCCC1)[C@]1(C3CCCCC3)C[C@@H](OC(=O)CO)[C@@]2(C)O1` (stereo partly shown) [(Id)], the GI50 was found to be 29 nM in the assay on UO-31; 16 nM in the assay on HS 578T; 12000 nM with 786-0; 21 nM with A498; 10700 nM in the assay on OVCAR-8; 22 nM with ACHN. For the same compound, the GI50 in [1] amounted to 2550 nM; with SN12C it was 32 nM; in the assay with BT-549, 55 nM; in the assay on RXF 393, 34 nM.

As to `C[C@@H]1CC[C@@H]2C1[C@H](OC(=O)/C=C/c1ccccc1)C1(C3CCCCC3)C[C@@H](NC(=O)CO)C2(C)O1` (stereo partly shown) [(Ia)], the GI50 in the assay on UO-31 was determined as 4790 nM; in the assay on HS 578T, 2820 nM; in the assay on 786-0, 14800 nM; with A498 it was 2190 nM; in the assay with OVCAR-8, 16200 nM; in the assay on ACHN, 3470 nM. In addition, the GI50 in [1] came out at 8030 nM; with SN12C, 11500 nM; in the assay with BT-549, 13200 nM; in the assay with RXF 393 it was 3310 nM.

Regarding `CC1CC[C@@H]2C1[C@H](OC(=O)c1ccc3ccccc3c1)[C@]1(C3CCCCC3)C[C@@H](OC(=O)CO)[C@@]2(C)O1` (stereo partly shown) [(If)], the GI50 turned out to be 40 nM in the assay with UO-31; 23 nM in the assay with HS 578T; 5370 nM with 786-0; 19 nM with A498; 5620 nM in the assay on OVCAR-8; 19 nM with ACHN. Further, the GI50 worked out at 1250 nM in assay [1], 52 nM with SN12C, 71 nM in the assay with BT-549 and 71 nM in the assay with RXF 393.

In the case of `C[C@@H]1CC[C@@H]2C1[C@H](OC(=O)/C=C/c1ccccc1)[C@]1(c3ccccc3)C[C@@H](OC(=O)CO)[C@@]2(C)O1` (stereo partly shown) [(Ic)], the GI50 was found to be 155 nM in the assay with UO-31; 112 nM in the assay on HS 578T; 11700 nM in the assay with 786-0; 191 nM in the assay with A498; 6760 nM in the assay on OVCAR-8; 178 nM with ACHN. Besides, the GI50 in assay [1] amounted to 2260 nM; with SN12C, 537 nM; with BT-549, 407 nM; in the assay with RXF 393, 251 nM.

Consider `Cc1c(C(=O)O[C@H]2C3C(C)CC[C@H]3[C@]3(C)O[C@@]2(C2CCCCC2)C[C@H]3OC(=O)CO)ccc2ccccc12` (stereo partly shown) [(Ig)], for which the GI50 is 407 nM with UO-31; 17 nM in the assay on HS 578T; 6460 nM in the assay on 786-0; 17 nM in the assay with A498; 6610 nM in the assay with OVCAR-8; 59 nM with ACHN. Further, the GI50 was 2130 nM in [1], 158 nM in the assay with SN12C, 5250 nM in the assay on BT-549 and 166 nM with RXF 393.

As to `C/C(=C\C(=O)O[C@H]1C2C(C)CC[C@H]2[C@]2(C)O[C@@]1(C1CCCCC1)C[C@H]2OC(=O)CO)c1ccccc1` (stereo partly shown) [(Ie)], the GI50 with UO-31 turned out to be 62 nM; with HS 578T, 10 nM; in the assay on 786-0, 5130 nM; in the assay on A498, 16 nM; with OVCAR-8 it was 4270 nM; in the assay on ACHN it was 15 nM. Further, the GI50 in assay [1] turned out to be 1080 nM; with SN12C, 23 nM; in the assay with BT-549, 120 nM; in the assay with RXF 393, 79 nM.
